According to patent US20240262842A1, “SMALL MOLECULE INHIBITORS OF KRAS G12C MUTANT” (Merck Sharp & Dohme LLC, priority 2021, published 2024):

How the values were obtained:
[1] = target: T1, interaction between GMPPNP-bound recombinant K-Ras4B G12C mutant protein and cRAF RAS-binding domain (cRAF-RBD) (Homo sapiens, UniProt P01116, G12C); experiment: Inhibitory activity on interaction between KRAS G12C and cRAF (Alpha technology); settings: GMPPNP-bound KRAS G12C incubated with compound 25° C. 1 hour; Table 2-1; read-out: IC50
T1 construct: His-tag (N)
Procedure, shortened: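 Alpha signal measured 1.5 h after adding cRAF-RBD (aa 50-132) and detection reagents to GMPPNP-bound KRAS G12C (aa 1-169) pretreated 1 h at 25° C with compound (pH 7.5 buffer). 0% inhibition = DMSO, 100% = GDP-loaded KRAS; IC50 by curve fit.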

[2] = test system: MIA PaCa-2 cells; experiment: Growth inhibition activity on KRAS-G12C mutant cell line (CellTiter-Glo 3D); assay type: cell-based, human; settings: Homo sapiens, MIA PaCa-2, 72 h, MIA PaCa-2, 3-day culture with compound; Table 3-1
Procedure, shortened: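 IC50 (nM) derived from inhibition of luminescence (CellTiter-Glo 3D) relative to compound-free wells. Cells were seeded in U-bottom plates, grown 1 day, then exposed to compound for 3 days at 37 °C with 0.2% final DMSO.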

T1 sequence (P01116 with tags, fused parts or gaps isoform P01116-2 G12C): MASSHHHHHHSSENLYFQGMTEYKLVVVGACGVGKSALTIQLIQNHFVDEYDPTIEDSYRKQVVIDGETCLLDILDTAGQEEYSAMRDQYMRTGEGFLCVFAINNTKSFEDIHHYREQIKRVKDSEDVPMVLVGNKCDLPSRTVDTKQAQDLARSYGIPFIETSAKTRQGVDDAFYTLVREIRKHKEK

| Compound | IC50 [1] | IC50 [2] |
| --- | --- | --- |
| COCc1nc2c3c(c(C(F)(F)F)cc2n1C)-c1cccn2c(C(=O)c4cc(F)c(NC(=O)/C=C/CN[C@H]5CCOC5)c(F)c4)cc(c12)C(=O)N(C)C3 [Example 158, (S,E)-N-(2,6-difluoro-4-(10-(methoxymethyl)-9,13-dimethyl-14-oxo-7-(trifluoromethyl)-9,12,13,14-tetrahydroimidazo[4″,5″:3′,4′]benzo[1′,2′:6,7]azocino[5,4,3-hi]indolizine-2-carbonyl)phenyl)-4-((tetrahydrofuran-3-yl)amino)but-2-enamide] | 77.6 nM | 95.4 nM |
| Cn1cnc2c3c(c(C(F)(F)F)cc21)-c1cccn2c(C(=O)c4cc(F)c(NC(=O)/C=C/CN5CCC5)c(F)c4)cc(c12)CCO3 [Example 161, (E)-4-(azetidin-1-yl)-N-(2,6-difluoro-4-(9-methyl-7-(trifluoromethyl)-13,14-dihydro-9H-imidazo-[4″,5″:5′,6′]benzo[1′,2′: 2,3]oxocino[4,5,6-hi]-indolizine-2-carbonyl)-phenyl)but-2-enamide] | 63.2 nM | 21.6 nM |
| Cn1cnc2c3c(c(C(F)(F)F)cc21)-c1cccn2c(C(=O)c4cc(F)c(NC(=O)/C=C/CN5CC[C@H]5C(C)(C)O)c(F)c4)cc(c12)CCO3 [Example 162, (S,E)-N-(2,6-difluoro-4-(9-methyl-7-(trifluoro-methyl)-13,14-dihydro-9H-imidazo[4″,5″:5′,6′]-benzo[1′,2′:2,3]oxocino-[4,5,6-hi]indolizine-2-carbonyl)phenyl)-4-(2-(2-hydroxypropan-2-yl)-azetidin-1-yl)but-2-enamide] | 22.4 nM | 15.2 nM |
| Cn1cnc2c3c(c(C(F)(F)F)cc21)-c1cccn2c(C(=O)c4cc(F)c(NC(=O)/C=C/CN5CC[C@H]5CO)c(F)c4)cc(c12)CCO3 [Example 165, (S,E)-N-(2,6-difluoro-4-(9-methyl-7-(trifluoro-methyl)-13,14-dihydro-9H-imidazo[4″,5″:5′,6′]-benzo[1′,2′:2,3]oxocino-[4,5,6-hi]indolizine-2-carbonyl)phenyl)-4-(2-(hydroxymethyl)azetidin-1-yl)but-2-enamide] | 3.75 nM | 5.44 nM |
| CN1CCc2cc(C(=O)c3cc(F)c(NC(=O)/C=C/CN[C@H]4CCOC4)c(F)c3)n3cccc(c23)-c2c(C(F)(F)F)cc3c(ncn3C3CC3)c21 [Example 166, (S,E)-N-(4-(9-cycloprop-yl-12-methyl-7-(trifluoro-methyl)-9,12,13,14-tetra-hydroimidazo[4″,5″:5′,6′]-benzo[1′,2′:2,3]azocino-[4,5,6-hi]indolizine-2-carbonyl)-2,6-difluoro-phenyl)-4-((tetrahydro-furan-3-yl)amino)but-2-enamide] | 33.7 nM | 51.2 nM |
| COC[C@@H]1CCN1C/C=C/C(=O)Nc1c(F)cc(C(=O)c2cc3c4c(cccn24)-c2c(C(F)(F)F)cc4c(ncn4C)c2OCC3)cc1F [Example 169, (S,E)-N-(2,6-difluoro-4-(9-methyl-7-(trifluoro-methyl)-13,14-dihydro-9H-imidazo[4″,5″:5′,6′]-benzo[1′,2′:2,3]oxocino-[4,5,6-hi]indolizine-2-carbonyl)phenyl)-4-(2-(methoxymethyl)azetidin-1-yl)but-2-enamide] | 59.6 nM | 15 nM |
| COCc1nc2c3c(c(OC)cc2n1C)-c1cccn2c(C(=O)c4cc(F)c(NC(=O)/C=C/CNC5(C)CC5)c(F)c4)cc(c12)CCN3C [Example 174, (E)-N-(2,6-difluoro-4-(7-methoxy-10-(methoxymethyl)-9,12-dimethyl-9,12,13,14-tetrahydroimidazo[4″,5″:5′,6′]benzo[1′,2′:2,3]azocino[4,5,6-hi]indolizine-2-carbonyl)phenyl)-4-((1-methylcyclopropyl)amino)but-2-enamide] | 7.41 nM | 7.45 nM |
| Cn1cnc2c3c(c(C(F)(F)F)cc21)-c1cccn2c(C(=O)c4cc(F)c(NC(=O)/C=C/CN5CC[C@H]5CF)c(F)c4)cc(c12)CCO3 [Example 175, (S,E)-N-(2,6-difluoro-4-(9-methyl-7-(trifluoro-methyl)-13,14-dihydro-9H-imidazo[4″,5″:5′,6′]-benzo[1′,2′:2,3]oxocino-[4,5,6-hi]indolizine-2-carbonyl)phenyl)-4-(2-(fluoromethyl)azetidin-1-yl)but-2-enamide] | 90.4 nM | 23.3 nM |
| COCc1nc2c3c(c(C(F)(F)F)cc2n1C)-c1cccn2c(C(=O)c4cc(F)c(NC(=O)/C=C/CNC5(C)CC5)c(F)c4)nc(c12)CCN3C [Example 185, (E)-N-(2,6-difluoro-4-(9-(methoxymethyl)-8,11-dimethyl-6-(trifluorometh-yl)-8,11,12,13-tetrahydro-1,2a,8,10,11-pentaaza-cycloocta[1,2,3-cd:5,4-e′]diindene-2-carbonyl)-phenyl)-4-((1-methyl-cyclopropyl)amino)but-2-enamide] | 40.8 nM | 75.7 nM |
| Cc1cnc2c3c(c(C(F)(F)F)cn12)-c1cccn2c(C(=O)c4cc(F)c(NC(=O)/C=C/CNC5(C)COC5)c(F)c4)cc(c12)CCN3C [Example 187, (E)-N-(4-(10,13-dimethyl-7-(trifluoromethyl)-14,15-dihydro-13H-imidazo[1″,2″:1′,2′]pyrido[3′,4′:2,3]azocino[4,5,6-hi]indolizine-2-carbonyl)-2,6-difluorophenyl)-4-((3-methyloxetan-3-yl)amino)but-2-enamide] | 36.4 nM | 39 nM |
| Cn1cnc2c3c(c(C(F)(F)F)cc21)-c1cccn2c(C(=O)c4cc(F)c(NC(=O)/C=C/CN5C[C@@H]6C[C@H]5CO6)c(F)c4)cc(c12)CCO3 [Example 189, (E)-4-((1S,4S)-2-oxa-5-azabicyclo[2.2.1]heptan-5-yl)-N-(2,6-difluoro-4-(9-methyl-7-(trifluoro-methyl)-13,14-dihydro-9H-imidazo[4″,5″:5′,6′]-benzo[1′,2′:2,3]oxocino-[4,5,6-hi]indolizine-2-carbonyl)phenyl)but-2-enamide] | 15.2 nM | 6.1 nM |
| Cn1cnc2c3c(c(C(F)(F)F)cc21)-c1cccn2c(C(=O)c4cc(F)c(NC(=O)/C=C/CN5C[C@H]6C[C@@H]5CO6)c(F)c4)cc(c12)CCO3 [Example 190, (E)-4-((1R,4R)-2-oxa-5-azabicyclo[2.2.1]heptan-5-yl)-N-(2,6-difluoro-4-(9-methyl-7-(trifluoro-methyl)-13,14-dihydro-9H-imidazo[4″,5″:5′,6′]-benzo[1′,2′:2,3]oxocino-[4,5,6-hi]indolizine-2-carbonyl)phenyl)but-2-enamide] | 10.3 nM | 9.08 nM |
| COc1cc(N2CCCC2=O)cc2c1-c1cccn3c(C(=O)c4cc(F)c(NC(=O)/C=C/CN[C@H]5CCOC5)c(F)c4)cc(c13)CCN2C [Example 191, (S,E)-N-(2,6-difluoro-4-(9-methoxy-5-methyl-7-(2-oxopyrrolidin-1-yl)-4,5-dihydro-3H-benzo-[2,3]azocino[4,5,6-hi]-indolizine-1-carbonyl)-phenyl)-4-((tetrahydro-furan-3-yl)amino)but-2-enamide] | 97.1 nM | 167 nM |
